The target of this assay is T1, PKC epsilon (Homo sapiens, UniProt Q02156).
T1 construct: purchased Invitrogen P2282
T1 sequence (Q02156 1-737): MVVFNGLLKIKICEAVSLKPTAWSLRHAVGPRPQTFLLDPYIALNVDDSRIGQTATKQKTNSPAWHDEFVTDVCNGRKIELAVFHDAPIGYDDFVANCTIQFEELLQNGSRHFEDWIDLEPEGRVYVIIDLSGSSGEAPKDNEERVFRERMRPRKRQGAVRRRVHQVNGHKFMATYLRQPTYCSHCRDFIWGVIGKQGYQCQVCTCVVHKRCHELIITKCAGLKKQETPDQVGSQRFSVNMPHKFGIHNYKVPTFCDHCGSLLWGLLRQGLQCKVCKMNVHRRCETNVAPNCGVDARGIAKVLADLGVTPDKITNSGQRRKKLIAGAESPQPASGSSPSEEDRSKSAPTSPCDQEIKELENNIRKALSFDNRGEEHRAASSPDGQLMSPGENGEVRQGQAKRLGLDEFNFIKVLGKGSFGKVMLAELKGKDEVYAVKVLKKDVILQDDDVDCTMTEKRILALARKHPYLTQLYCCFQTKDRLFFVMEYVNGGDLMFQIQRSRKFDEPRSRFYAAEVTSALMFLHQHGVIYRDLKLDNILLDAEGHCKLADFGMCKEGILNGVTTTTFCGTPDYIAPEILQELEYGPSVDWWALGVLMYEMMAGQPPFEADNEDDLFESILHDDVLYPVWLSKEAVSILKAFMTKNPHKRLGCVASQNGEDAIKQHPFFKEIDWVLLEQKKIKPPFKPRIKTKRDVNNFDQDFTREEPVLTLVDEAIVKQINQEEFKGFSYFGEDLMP
Description: Biochemical assay for PKC epsilon (fluorescence polarization, Protein Kinase C Assay Kit, Red). Conditions: read-out: IC50 μM PKCε. As to the method:
The compounds were tested for inhibition of PKC epsilon.
The inhibition assays were performed with a fluorescence polarization (FP) assay using the commercially available Protein Kinase C Assay Kit, Red, from Invitrogen (Product ID. No. P2941), essentially in accordance with the protocol supplied by the manufacturer. […] The isozyme PKC epsilon was also obtained from Invitrogen (Product ID No. P2282).
Staurosporine was used as a positive control (2 μM).
To perform the assay, 2 μl of a solution of the compound to be tested in DMSO (at each concentration) was added to 6 μl of a solution of the enzyme in 10 mM HEPES, 5 mM dithiotreitol, 0.1% Triton X-100, pH 7.4. The final concentration of the enzymes was 10 ng/ml.
After incubating for 30 minutes at room temperature, 4 μl of a mixture of ATP and the protein substrate in 60 mM HEPES (pH7.4), 15 mM MgCl2, 0.3 mM CaCl2, 0.06% NP40 was added.
After incubating for 80 minutes at room temperature, 3 μl of a mix solution of 500 mM EDTA (stop solution) and the Rhodamine-based PKC Red Tracer (from the Protein Kinase C Assay Kit) in BGG/phosphate buffer (pH7.4) with 0.02% NaN3 and 0.1% Triton X-100 was added and 5 μl of a the Anti-Phosphoserine antibody (also from the Protein Kinase C Assay Kit) in BGG/phosphate buffer (pH7.4) with 0.02% NaN3.
The results were fitted to a curve using the XL-Fit algorithm and […] were calculated for each fitted curve, again using the XL-Fit algorithm.
For orientation: In fluorescence polarisation assays a small probe gives low polarisation when free and higher when bound to something large.

[1] abbreviates: Table 2, compounds of Formula XIII.
The mark [2] stands for this setting: compounds of Formula XIV, Table 3.

Where two headings read alike, the source gives them in different places.

Consider “4-(1-Amino-2-{[1-(4-chloro-phenyl)- cyclobutanecarbonyl]-amino}-ethyl)- N-pyridin-4-yl-benzamide [Compound 337]”, for which the IC50 (in general, the concentration that gives 50% inhibition) under setting [1] is 0.05 to 0.5 µM.

For the compound “4-(1-Amino-2-{[1-(4-fluoro-phenyl)- cyclobutanecarbonyl]-amino}-ethyl)- N-pyridin-4-yl-benzamide [Compound 338]”, the IC50 under setting [1] is below 0.05 µM.

As for “4-(1-Amino-2-{[1-(4-fluoro-phenyl)- cyclohexanecarbonyl]-amino}-ethyl)- N-pyridin-4-yl-benzamide [Compound 343]”, the half-inhibitory concentration (IC50) under setting [1] is below 0.05 µM.

With “4-[1-Amino-2-(5-fluoro- indan-1-ylcarbamoyl)-ethyl]- N-pyridin-4-yl-benzamide [Compound 361]”, the IC50 under setting [2] lay in the range of 0.05 to 0.5 µM.

Turning to “4-[1-Amino-2-(6-fluoro- indan-1-ylcarbamoyl)-ethyl]- N-pyridin-4-yl-benzamide [Compound 362]”, the IC50 under setting [2] was 0.05 to 0.5 µM.

“7-Fluoro-indan-1-carboxylic acid {2- amino-2-[4-(pyridin-4-ylcarbamoyl)- phenyl]-ethyl}-amide [Compound 353]”: the IC50 under setting [1] fell in the range of 0.05 to 0.5 µM.

Take `NC(CNC(=O)Cc1ccccc1)c1ccc(C(=O)Nc2ccncc2)cc1` (stereo not drawn) [Compound 328, 4-(1-Amino-2-phenylacetylamino-ethyl)-N-pyridin-4-yl-benzamide]: the IC50 under setting [1] lay in the range of 0.05 to 0.5 µM.

Take `NC(CNC(=O)Cc1ccc(Cl)c(Cl)c1)c1ccc(C(=O)Nc2ccncc2)cc1` (stereo not drawn) [Compound 329, 4-{1-Amino-2-[2-(3,4-dichloro-phenyl)-acetylamino]-ethyl}-N-pyridin-4-yl-benzamide]: the IC50 under setting [1] fell in the range of 0.05 to 0.5 µM.

Take `NC(CNC(=O)Cc1ccc(F)c(Cl)c1)c1ccc(C(=O)Nc2ccncc2)cc1` (stereo not drawn) [Compound 330, 4-{1-Amino-2-[2-(3-chloro-4-fluoro-phenyl)-acetylamino]-ethyl}-N-pyridin-4-yl-benzamide]: the IC50 under setting [1] is 0.05 to 0.5 µM.

With `NC(CNC(=O)Cc1cc(F)ccc1F)c1ccc(C(=O)Nc2ccncc2)cc1` (stereo not drawn) [Compound 331, 4-{1-Amino-2-[2-(2,5-difluoro-phenyl)-acetylamino]-ethyl}-N-pyridin-4-yl-benzamide], under setting [1], the IC50 lay within 0.5 to 5 µM.

Take `NC(CNC(=O)Cc1ccc(F)cc1Cl)c1ccc(C(=O)Nc2ccncc2)cc1` (stereo not drawn) [Compound 332, 4-{1-Amino-2-[2-(2-chloro-4-fluoro-phenyl)-acetylamino]-ethyl}-N-pyridin-4-yl-benzamide]: the IC50 under setting [1] lay in the range of 0.05 to 0.5 µM.

With `NC(CNC(=O)Cc1ccc(Cl)cc1F)c1ccc(C(=O)Nc2ccncc2)cc1` (stereo not drawn) [Compound 333, 4-{1-Amino-2-[2-(4-chloro-2-fluoro-phenyl)-acetylamino]-ethyl}-N-pyridin-4-yl-benzamide], under setting [1], the concentration for half-maximal inhibition (IC50) lay within 0.05 to 0.5 µM.

Consider `CCC(CC)(C(=O)NCC(N)c1ccc(C(=O)Nc2ccncc2)cc1)c1ccccc1` (stereo not drawn) [Compound 334, 4-[1-Amino-2-(2-ethyl-2-phenyl-butyrylamino)-ethyl]-N-pyridin-4-yl-benzamide], for which the IC50 under setting [1] was below 0.05 µM.

Consider `NC(CNC(=O)C1(c2ccc(F)cc2)CCCC1)c1ccc(C(=O)Nc2ccncc2)cc1` (stereo not drawn) [Compound 336, 4-(1-Amino-2-{[1-(4-fluoro-phenyl)-cyclopentanecarbonyl]-amino}-ethyl)-N-pyridin-4-yl-benzamide], for which the 50% inhibitory concentration (IC50) under setting [1] was below 0.05 µM.

In the case of `NC(CNC(=O)C1(c2cccc(F)c2)CCCC1)c1ccc(C(=O)Nc2ccncc2)cc1` (stereo not drawn) [Compound 341, 4-(1-Amino-2-{[1-(3-fluoro-phenyl)-cyclopentanecarbonyl]-amino}-ethyl)-N-pyridin-4-yl-benzamide], under setting [1], the IC50 fell in the range of 0.05 to 0.5 µM.

As for `NC(CNC(=O)C1(c2ccc(F)cc2Cl)CCCC1)c1ccc(C(=O)Nc2ccncc2)cc1` (stereo not drawn) [Compound 342, 4-(1-Amino-2-{[1-(2-chloro-4-fluoro-phenyl)-cyclopentanecarbonyl]-amino}-ethyl)-N-pyridin-4-yl-benzamide], the IC50 under setting [1] was below 0.05 µM.

Turning to `NC(CNC(=O)C1CCCc2ccccc21)c1ccc(C(=O)Nc2ccncc2)cc1` (stereo not drawn) [Compound 350, 1,2,3,4-Tetrahydro-naphthalene-1-carboxylic acid {2-amino-2-[4-(pyridin-4-ylcarbamoyl)-phenyl]-ethyl}-amide], the IC50 under setting [1] was in the range of 0.05 to 0.5 µM.

As to `NC(CNC(=O)C1CCc2ccccc21)c1ccc(C(=O)Nc2ccncc2)cc1` (stereo not drawn) [Compound 351, Indan-1-carboxylic acid {2-amino-2-[4-(pyridin-4-ylcarbamoyl)-phenyl]-ethyl}-amide], under setting [1], the IC50 lay within 0.05 to 0.5 µM.

With `NC(CNC(=O)C1CCc2cc(Cl)ccc21)c1ccc(C(=O)Nc2ccncc2)cc1` (stereo not drawn) [Compound 352, 5-Chloro-indan-1-carboxylic acid {2-amino-2-[4-(pyridin-4-ylcarbamoyl)-phenyl]-ethyl}-amide], the IC50 under setting [1] was below 0.05 µM.

Take `NC(CNC(=O)C1CCc2ccc(F)cc21)c1ccc(C(=O)Nc2ccncc2)cc1` (stereo not drawn) [Compound 354, 6-Fluoro-indan-1-carboxylic acid {2-amino-2-[4-(pyridin-4-ylcarbamoyl)-phenyl]-ethyl}-amide]: under setting [1], the IC50 is 0.05 to 0.5 µM.

Regarding `NC(CC(=O)NC1CCOc2ccccc21)c1ccc(C(=O)Nc2ccncc2)cc1` (stereo not drawn) [Compound 359, 4-[1-Amino-2-(chroman-4-ylcarbamoyl)-ethyl]-N-pyridin-4-yl-benzamide], the concentration for half-maximal inhibition (IC50) under setting [2] is 0.05 to 0.5 µM.

For `NC(CC(=O)NC1CCSc2ccccc21)c1ccc(C(=O)Nc2ccncc2)cc1` (stereo not drawn) [Compound 360, 4-[1-Amino-2-(thiochroman-4-ylcarbamoyl)-ethyl]-N-pyridin-4-yl-benzamide], the half-inhibitory concentration (IC50) under setting [2] was 0.05 to 0.5 µM.

Turning to `NC(CC(=O)NC1COc2ccccc21)c1ccc(C(=O)Nc2ccncc2)cc1` (stereo not drawn) [Compound 366, 4-[1-Amino-2-(2,3-dihydro-benzofuran-3-ylcarbamoyl)-ethyl]-N-pyridin-4-yl-benzamide], the IC50 under setting [2] was in the range of 0.05 to 0.5 µM.

For `NC(CC(=O)NC1CCCc2sccc21)c1ccc(C(=O)Nc2ccncc2)cc1` (stereo not drawn) [Compound 367, 4-[1-Amino-2-(4,5,6,7-tetrahydro-benzo[b]thiophen-4-ylcarbamoyl)-ethyl]-N-pyridin-4-yl-benzamide], the IC50 under setting [2] was in the range of 0.05 to 0.5 µM.

Consider `NC(CC(=O)NC(c1ccc(Cl)cc1)C1CC1)c1ccc(C(=O)Nc2ccncc2)cc1` (stereo not drawn) [Compound 368, 4-(1-Amino-2-{[(4-chloro-phenyl)-cyclopropyl-methyl]-carbamoyl}-ethyl)-N-pyridin-4-yl-benzamide], for which the IC50 under setting [2] fell in the range of 0.5 to 5 µM.

Turning to `NC(CC(=O)NC(c1ccc(F)cc1)C1CCC1)c1ccc(C(=O)Nc2ccncc2)cc1` (stereo not drawn) [Compound 369, 4-(1-Amino-2-{[cyclobutyl-(4-fluoro-phenyl)-methyl]-carbamoyl}-ethyl)-N-pyridin-4-yl-benzamide], the IC50 under setting [2] was in the range of 0.05 to 0.5 µM.

In the case of `CC(C)(C(=O)NCC(N)c1ccc(C(=O)Nc2ccncc2)cc1)c1ccc(F)c(F)c1` (stereo not drawn) [Compound 376, 4-{1-Amino-2-[2-(3,4-difluoro-phenyl)-2-methyl-propionylamino]-ethyl}-N-pyridin-4-yl-benzamide], the IC50 under setting [1] was below 0.05 µM.

(Values after patent US20100168102A9, “Amide Derivatives as Kinase Inhibitors” (Devgen NV, priority 2005, published 2010).)
